Laboratory results published in publication PMC10133251, “An intrinsic purine metabolite AICAR blocks lung tumour growth by targeting oncoprotein mucin 1” (British Journal of Cancer, 2023).

Experiments:
MUC1-CT = biological target: T1, MUC1-CT (Homo sapiens, UniProt P15941); test: cellular thermal shift assay, western blot; type: cell-based; details: intact H1975 cells, 1 mM AICAR for 15 min, heated 3 min at 37-55 °C; stabilisation shown as curve only, no Tm; intracellular phosphorylation to ZMP possible
T1 construct: endogenous C-terminal beta subunit (MUC1-CT) of the cleaved MUC1 precursor in intact H1975 cells; detected by western blot with anti-MUC1-CT
T1 sequence (P15941 1098-1255 limits assumed): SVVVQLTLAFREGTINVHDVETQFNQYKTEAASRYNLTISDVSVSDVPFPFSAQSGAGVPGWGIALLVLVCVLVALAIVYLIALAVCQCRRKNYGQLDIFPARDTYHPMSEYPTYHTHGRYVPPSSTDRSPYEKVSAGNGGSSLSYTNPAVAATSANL

A549 = test: cells; parameters: species or system panel of lung tumour and stromal cell lines; CellTiter-Glo luminescent cell viability, 2D monolayer, 3000 cells per well in 96-well plate, vehicle-normalised; details: Homo sapiens, A549; viability, 72 h
Experimental: (§1) For 2D monolayer cell cultures, 3000 cells were plated into each well of a white 96-well plate in three replicates. After attachment, the cells were treated with AICAR, VX-509, osimertinib, and ABT-702 alone or in combinations for 72 h. The cell viability was measured at the treatment endpoint using the CellTiter-Glo® luminescent cell viability assay kit (Promega, Cat #G7570) according to the manufacturer’s instructions. The luminescent signal was recorded as relative light units (RLU). For 3D organoid cultures, the cell viability was measured using CellTiter-Glo 3D® Cell Viability Assay (Promega, Cat #G9681) according to the manufacturer’s protocol. The relative cell viability treated with the vehicle was normalised as 1. To explore the effects of AICAR treatment on lung cancer cell lines, we performed a cell viability assay using a panel of lung cancer cell lines based on the status of EGFR mutations (Table S1). […] To understand whether AICAR’s effects are dependent upon EGFR mutations, we tested drug response in another panel of lung cancer cells with wild-type EGFR, including H358, H23, H441, A549, and H69 (Fig. 1b). The average EC50 of tested EGFR wild-type cell lines (1.31 ± 0.18 mM) was higher than that of EGFR-mutant cell lines upon AICAR treatment (p < 0.05). To examine if there was any toxicity in stromal cells, we measured AICAR treatment response in a panel of primary lung stromal cell lines, including CCD-13Lu (fibroblasts), HULEC-5A (endothelial cells), and NR8383 (macrophages). […] 3000 cells (H3255, PC9-ER, HCC827, H1650, PC9, and H1975) were plated in a 96-well plate and treated with increasing doses of AICAR (0–10 mM). The cell viability was measured three days after treatment. Values were normalised to a vehicle-treated control group. N = 3 replicates. b Cell viability assay of AICAR in EGFR wild-type lung adenocarcinoma and small cell lung cancer cell lines. 3000 cells (A549, H23, H69, H358, and H441) were plated in a 96-well plate and treated with increasing doses of AICAR (0–10 mM). The cell viability was measured three days after treatment. Values were normalised to a vehicle-treated control group. N = 3 replicates. c Cell viability assay of AICAR in multiple types of primary lung stromal cells. 3000 cells (macrophages NR8383, endothelial cells HULEC-5A, and fibroblasts CCD-13Lu) were plated in a 96-well plate and treated with increasing doses of AICAR (0–10 mM). The cell viability was measured three days after treatment. Values were normalised to a vehicle-treated control group. N = 3 replicates. d Quantification of EC50 in EGFR mutant, wild-type, and non-malignant stromal lung cells. N = 3 replicates. e Flow cytometry analysis for time-dependent apoptosis in EGFR-mutant H1975 cells treated with AICAR. H1975 cells were plated in a 24-well plate and treated with AICAR (1 mM) for 0, 4, 7, and 16 h. After treatment, the apoptotic cells were quantified by flow cytometry analysis of cells stained with Annexin-V-APC and 7AAD. N = 4 replicates. f–h Flow cytometry analysis for apoptosis in multiple cell lines treated with AICAR. EGFR-mutant PC9 (f) and EGFR wild-type A549 (g) and H23 (h) cells were plated in a 24-well plate and treated with AICAR (1 mM) and vehicle control for 7 h. After treatment, the apoptotic cells were quantified by flow cytometry analysis of cells stained with Annexin-V-APC and 7AAD. N = 4 replicates. i, j Western blotting and relative quantification for expression levels of γ-H2AX (S139), H2AX, p-p53 (S33), p53, and […]

H1650 = test: cells; parameters: species or system panel of lung tumour and stromal cell lines; CellTiter-Glo luminescent cell viability, 2D monolayer, 3000 cells per well in 96-well plate, vehicle-normalised; details: Homo sapiens, NCI-H1650; viability, 72 h
Experimental: as §1

H1975 = test: cells; parameters: species or system panel of lung tumour and stromal cell lines; CellTiter-Glo luminescent cell viability, 2D monolayer, 3000 cells per well in 96-well plate, vehicle-normalised; details: Homo sapiens, NCI-H1975; viability, 72 h
Experimental: as §1

H23 = test: cells; parameters: species or system panel of lung tumour and stromal cell lines; CellTiter-Glo luminescent cell viability, 2D monolayer, 3000 cells per well in 96-well plate, vehicle-normalised; details: Homo sapiens, NCI-H23; viability, 72 h
Experimental: as §1

H3255 = test: cells; parameters: species or system panel of lung tumour and stromal cell lines; CellTiter-Glo luminescent cell viability, 2D monolayer, 3000 cells per well in 96-well plate, vehicle-normalised; details: Homo sapiens, NCI-H3255; viability, 72 h
Experimental: as §1

H358 = test: cells; parameters: species or system panel of lung tumour and stromal cell lines; CellTiter-Glo luminescent cell viability, 2D monolayer, 3000 cells per well in 96-well plate, vehicle-normalised; details: Homo sapiens, NCI-H358; viability, 72 h
Experimental: as §1

H441 = test: cells; parameters: species or system panel of lung tumour and stromal cell lines; CellTiter-Glo luminescent cell viability, 2D monolayer, 3000 cells per well in 96-well plate, vehicle-normalised; details: Homo sapiens, NCI-H441; viability, 72 h
Experimental: as §1

H69 = test: cells; parameters: species or system panel of lung tumour and stromal cell lines; CellTiter-Glo luminescent cell viability, 2D monolayer, 3000 cells per well in 96-well plate, vehicle-normalised; details: Homo sapiens, NCI-H69; viability, 72 h
Experimental: as §1

HCC827 = test: cells; parameters: species or system panel of lung tumour and stromal cell lines; CellTiter-Glo luminescent cell viability, 2D monolayer, 3000 cells per well in 96-well plate, vehicle-normalised; details: Homo sapiens, HCC827; viability, 72 h
Experimental: as §1

PC9-ER = test: cells; parameters: species or system panel of lung tumour and stromal cell lines; CellTiter-Glo luminescent cell viability, 2D monolayer, 3000 cells per well in 96-well plate, vehicle-normalised; details: Homo sapiens, PC-9/ER; viability, 72 h
Experimental: as §1

PC9 = test: cells; parameters: species or system panel of lung tumour and stromal cell lines; CellTiter-Glo luminescent cell viability, 2D monolayer, 3000 cells per well in 96-well plate, vehicle-normalised; details: Homo sapiens, PC-9; viability, 72 h
Experimental: as §1

in vitro = test: in vitro; parameters: species or system panel of lung tumour and stromal cell lines; CellTiter-Glo luminescent cell viability, 2D monolayer, 3000 cells per well in 96-well plate, vehicle-normalised; details: panel of lung tumour and stromal cell lines, EC50 (mM), viability, given as EC50
Experimental: (§2) For 2D monolayer cell cultures, 3000 cells were plated into each well of a white 96-well plate in three replicates. After attachment, the cells were treated with AICAR, VX-509, osimertinib, and ABT-702 alone or in combinations for 72 h. The cell viability was measured at the treatment endpoint using the CellTiter-Glo® luminescent cell viability assay kit (Promega, Cat #G7570) according to the manufacturer’s instructions. The luminescent signal was recorded as relative light units (RLU). For 3D organoid cultures, the cell viability was measured using CellTiter-Glo 3D® Cell Viability Assay (Promega, Cat #G9681) according to the manufacturer’s protocol. The relative cell viability treated with the vehicle was normalised as 1. To explore the effects of AICAR treatment on lung cancer cell lines, we performed a cell viability assay using a panel of lung cancer cell lines based on the status of EGFR mutations (Table S1). […] To understand whether AICAR’s effects are dependent upon EGFR mutations, we tested drug response in another panel of lung cancer cells with wild-type EGFR, including H358, H23, H441, A549, and H69 (Fig. 1b). […] To examine if there was any toxicity in stromal cells, we measured AICAR treatment response in a panel of primary lung stromal cell lines, including CCD-13Lu (fibroblasts), HULEC-5A (endothelial cells), and NR8383 (macrophages). […] The cell viability was measured three days after treatment. […] The cell viability was measured three days after treatment. […] The cell viability was measured three days after treatment. […] N = 3 replicates. d Quantification of EC50 in EGFR mutant, wild-type, and non-malignant stromal lung cells. […] After treatment, the apoptotic cells were quantified by flow cytometry analysis of cells stained with Annexin-V-APC and 7AAD. […] After treatment, the apoptotic cells were quantified by flow cytometry analysis of cells stained with Annexin-V-APC and 7AAD. N = 4 replicates. i, j Western blotting and relative quantification for expression levels of γ-H2AX (S139), H2AX, p-p53 (S33), p53, and […]

HULEC-5A = test: in vitro; parameters: species or system panel of lung tumour and stromal cell lines; CellTiter-Glo luminescent cell viability, 2D monolayer, 3000 cells per well in 96-well plate, vehicle-normalised; details: viability, 72 h; given as EC50; inhibitor
Experimental: as §2

NR8383 = test: in vitro; parameters: species or system panel of lung tumour and stromal cell lines; CellTiter-Glo luminescent cell viability, 2D monolayer, 3000 cells per well in 96-well plate, vehicle-normalised; details: viability, 72 h; given as EC50; inhibitor
Experimental: as §2

In the case of `NC(=O)c1ncn([C@@H]2O[C@H](CO)[C@@H](O)[C@H]2O)c1N` [AICAR], the thermal stability (MUC1-CT) is reported as “AICAR incubation in H1975 cells significantly increased protein stability in MUC1-CT than vehicle-treated groups”, the EC50 (A549) is reported as 1.6 mM and the EC50 (H1650) is reported as 420 µM. The EC50 (H1975) was 298 µM, the EC50 (H23) was 1.61 mM and the EC50 (H3255) was 320 µM. For the same compound, the EC50 (H358) was 1.28 mM, the EC50 (H441) was 640 µM and the EC50 (H69) was 1.44 mM. The EC50 (HCC827) was 880 µM, the EC50 (PC9-ER) was 410 µM and the EC50 (PC9) was 300 µM. It also gave a CC50 at 72 h (in vitro) of 1.03 mM, a CC50 (HULEC-5A) of 1.45 mM and a CC50 (NR8383) of 1.11 mM.
